Assays:
[1] = Inhibition of TNF-α release from LPS stimulated isolated human PBMC; assay type: cell-based; details: Homo sapiens, PBMC, read-out: IC50 (nM) for inhibition of TNF-α release
Method: The anti-inflammatory activity of the compounds against human leukocytes in vitro was also evaluated by determining inhibition of tumour necrosis factor-α (TNF-α) release from lipopolysaccharide (LPS) stimulated isolated human peripheral mononuclear cells (PBMC).
Peripheral venous blood from healthy, non-medicated donors was collected using ethylenediaminetetraacetic acid (EDTA) as the anti-coagulant. For PBMC preparation, samples of blood were diluted 1:1 with sterile phosphate buffered saline and then separated using ACCUSPIN™ System-Histopaque®-1077 tubes (Sigma-Aldrich, St Louis, Mo.), centrifuged at 400 g for 35 minutes. Buffy coat cells were removed into PBS, centrifuged at 200 g for 10 minutes and re-suspended in PBMC assay buffer (Hanks Balanced Salt Solution, 0.28% [w/v] 4-[2-hydroxyethyl]-1-piperazineethanesulfonic acid [HEPES], 0.01% [w/v] low-endotoxin bovine serum albumin [BSA]. A differential white cell count was performed and PBMC's diluted to 1×10^6 lymphocytes per ml in PBMC assay buffer.
Test compounds were dissolved in DMSO and diluted in PBMC assay buffer (final DMSO concentration 1%) to cover an appropriate concentration range, e.g 0.001 nM to 10000 nM. Samples of test compound solution or vehicle (20 μl) were added into 96-well tissue culture treated plates (Corning) and PBMC (160 μl) added to each well. The assay mixtures were incubated at 37° C. for 1 h in a humidified incubator containing an atmosphere of air supplemented with 5% CO2 before adding LPS (20 μl of 100 ng/ml for PBMC). Plates were returned to the incubator for a further 18 hours, and then centrifuged before recovery of samples of supernatant. TNF-α in the samples was determined using an enzyme-linked immunosorbent assay (ELISA) (Invitrogen kit no CHC-1754; Invitrogen Carlsbad, Calif.) and following the manufacturers instructions. Dose response curves were constructed from which IC50 values were calculated.

[2] = target: T1, human GR (Homo sapiens, UniProt P04150); experiment: GR agonist potency, MMTV-luciferase reporter in SW1353 cells; assay type: cell-based; details: human chondrosarcoma cell-line SW1353 stably transfected with MMTV-luciferase reporter; approx. 18 hours; data as percentage of 1 μM dexamethasone positive control
T1 construct: SW1353 naturally expresses human GR; endogenous in cells; host or cells: human chondrosarcoma cell-line SW1353 stably transfected with an MMTV-luciferase reporter construct
T1 sequence (P04150 1-777): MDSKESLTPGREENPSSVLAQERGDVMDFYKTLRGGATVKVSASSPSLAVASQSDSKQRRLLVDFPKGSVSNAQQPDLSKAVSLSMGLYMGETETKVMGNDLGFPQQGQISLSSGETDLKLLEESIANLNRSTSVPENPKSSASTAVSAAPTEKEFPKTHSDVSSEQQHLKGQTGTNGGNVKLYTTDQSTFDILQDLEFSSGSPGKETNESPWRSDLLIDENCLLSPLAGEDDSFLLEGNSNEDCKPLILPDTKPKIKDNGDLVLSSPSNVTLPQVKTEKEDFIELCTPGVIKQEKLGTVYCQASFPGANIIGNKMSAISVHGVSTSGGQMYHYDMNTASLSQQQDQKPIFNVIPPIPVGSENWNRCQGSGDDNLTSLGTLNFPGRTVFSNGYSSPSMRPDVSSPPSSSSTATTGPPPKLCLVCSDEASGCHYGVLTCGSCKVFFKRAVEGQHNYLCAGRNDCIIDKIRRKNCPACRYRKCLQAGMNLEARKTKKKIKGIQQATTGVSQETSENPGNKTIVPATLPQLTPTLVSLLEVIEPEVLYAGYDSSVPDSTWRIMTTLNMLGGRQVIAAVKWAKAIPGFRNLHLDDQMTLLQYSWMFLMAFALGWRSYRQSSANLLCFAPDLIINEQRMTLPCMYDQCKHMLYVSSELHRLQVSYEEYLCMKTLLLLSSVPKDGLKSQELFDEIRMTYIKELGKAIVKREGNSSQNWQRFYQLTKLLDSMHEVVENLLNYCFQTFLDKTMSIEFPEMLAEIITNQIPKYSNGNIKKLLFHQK
Method: Glucococorticoid receptor (GR) agonist potency was determined in the human chondrosarcoma cell-line SW1353 stably transfected with an MMTV-luciferase reporter construct. SW1353 naturally expresses human GR, which on binding a glucocorticoid agonist activates glucocorticoid response elements within the MMTV promoter, driving expression of the luciferase gene.
Frozen SW1353 cells were revived in DMEM medium, without sodium pyruvate or phenol red, supplemented with 2 mM L-glutamine, 1 μg/ml insulin, 2 mg/ml lactalbumin hydrosylate and 0.5 μg/ml ascorbate. Cells were seeded at approximately 5000 cells/well (35 μl/well) in 384-well clear bottom, tissue culture treated plates. Steroid dose-response dilutions were prepared in steroid diluent (PBS containing 2.5% (v/v) DMSO and 0.05% (v/v) pluronic detergent) and 5 μl added to each well. The volume was made up to 50 μl per well with steroid diluent. Positive control wells contained 1 μM dexamethasone. Plates were incubated for approximately 18 hours at 37° C. in an air/5% CO2 atmosphere in a humidified incubator before Britelite reagent (10 μl; Perkin-Elmer) was added to each well. Each plate was incubated for 2 minutes in the dark and luminescence quantified using a LJL Biosystems Analyst luminometer. Data for test compounds (expressed as percentage of the dexamethasone positive control) were used to construct dose response curves from which EC50 values were estimated.

Row | SMILES | IC50 [1] | EC50 [2]
1 | C[C@]12C=CC(=O)C=C1CC[C@H]1[C@@H]3CC[C@](OC(=O)c4ccc(Sc5ccccc5)cc4)(C(=O)OCC#N)[C@@]3(C)C[C@H](O)[C@@]12F [Example 8, cyanomethyl (11beta,17alpha)-9-fluoro-11-hydroxy-3-oxo-17-{[4-(phenylthio)benzoyl]oxy}androsta-1,4-diene-17-carboxylate] | 0.292 nM | 25 nM
2 | C[C@]12C=CC(=O)C=C1[C@@H](F)C[C@H]1[C@@H]3CC[C@](OC(=O)c4ccc(OCc5ccccc5)cc4)(C(=O)CO)[C@@]3(C)C[C@H](O)[C@@]12F [Example 31, (6alpha,11beta)-6,9-difluoro-11,21-dihydroxy-3,20-dioxopregna-1,4-dien-17-yl 4-(benzyloxy)benzoate] | 0.152 nM | 102 nM
3 | C[C@]12C=CC(=O)C=C1CC[C@H]1[C@@H]3CC[C@](OC(=O)c4ccc(Oc5ccccc5)cc4O)(C(=O)OCC#N)[C@@]3(C)C[C@H](O)[C@@]12F [Example 21, cyanomethyl(11beta,17alpha)-9-fluoro-11-hydroxy-17-[(2-hydroxy-4-phenoxybenzoyl)oxy]-3-oxoandrosta-1,4-diene-17-carboxylate] | 0.656 nM | 49 nM
4 | C[C@]12C=CC(=O)C=C1[C@@H](F)C[C@H]1[C@@H]3CC[C@](OC(=O)c4ccc(CSc5ccccc5)cc4)(C(=O)OCC#N)[C@@]3(C)C[C@H](O)[C@@]12F [Example 5, cyanomethyl (6alpha,11beta,17alpha)-6,9-difluoro-11-hydroxy-3-oxo-17-({4-[(phenylthio)methyl]benzoyl}oxy)androsta-1,4-diene-17-carboxylate] | 0.152 nM | 33.3 nM
5 | C[C@]12C=CC(=O)C=C1CC[C@H]1[C@@H]3CC[C@](OC(=O)c4ccc(Sc5ccccc5)cc4)(C(=O)SCF)[C@@]3(C)C[C@H](O)[C@@]12F [Example 24, (11beta,17alpha)-9-fluoro-17-{[(fluoromethyl)thio]carbonyl}-11-hydroxy-3-oxoandrosta-1,4-dien-17-yl 4-(phenylthio)benzoate] | 0.117 nM | 25.8 nM
6 | C[C@]12C=CC(=O)C=C1CC[C@H]1[C@@H]3CC[C@](OC(=O)c4ccc(Cc5ccccc5)cc4)(C(=O)SCF)[C@@]3(C)C[C@H](O)[C@@]12F [Example 22, (11beta,17alpha)-9-fluoro-17-{[(fluoromethyl)thio]carbonyl}-11-hydroxy-3-oxoandrosta-1,4-dien-17-yl 4-benzylbenzoate] | 0.087 nM | 69.9 nM
7 | C[C@]12C=CC(=O)C=C1CC[C@H]1[C@@H]3CC[C@](OC(=O)c4ccc(Oc5cccc(O)c5)cc4)(C(=O)OCC#N)[C@@]3(C)C[C@H](O)[C@@]12F [Example 17, cyanomethyl (11beta,17alpha)-9-fluoro-11-hydroxy-17-{[4-(3-hydroxyphenoxy)benzoyl]oxy}-3-oxoandrosta-1,4-diene-17-carboxylate] | 0.157 nM | 37.9 nM
8 | C[C@]12C=CC(=O)C=C1CC[C@H]1[C@@H]3CC[C@](OC(=O)c4ccc(Oc5ccc(O)c(Cl)c5)cc4)(C(=O)SCC#N)[C@@]3(C)C[C@H](O)[C@@]12F [Example 12, (11beta,17alpha)-17-{[(cyanomethyl)thio]-carbonyl}-9-fluoro-11-hydroxy-3-oxoandrosta-1,4-dien-17-yl 4-(3-chloro-4-hydroxyphenoxy)benzoate] | 0.345 nM | 117 nM
9 | C[C@]12C=CC(=O)C=C1CC[C@H]1[C@@H]3CC[C@](OC(=O)c4ccc(Oc5ccc(O)cc5)cc4)(C(=O)OCC#N)[C@@]3(C)C[C@H](O)[C@@]12F [Example 16, cyanomethyl (11beta,17alpha)-9-fluoro-11-hydroxy-17-{[4-(4-hydroxyphenoxy)benzoyl]oxy}-3-oxoandrosta-1,4-diene-17-carboxylate] | 0.067 nM | 24 nM
10 | C[C@]12C=CC(=O)C=C1CC[C@H]1[C@@H]3CC[C@](OC(=O)c4ccc(Oc5ccccc5)cc4)(C(=O)SCF)[C@@]3(C)C[C@H](O)[C@@]12F [Example 25, (11beta, 17alpha)-9-fluoro-17-{[(fluoromethyl)thio]carbonyl}-11-hydroxy-3-oxoandrosta-1,4-dien-17-yl 4-phenoxybenzoate] | 0.026 nM | 19.8 nM
11 | CSc1cccc(Sc2ccc(C(=O)O[C@]3(C(=O)OCC#N)[C@H](C)C[C@H]4[C@@H]5C[C@H](F)C6=CC(=O)C=C[C@]6(C)[C@@]5(F)[C@@H](O)C[C@@]43C)cc2)c1 [Example 49, Cyanomethyl (6alpha,11beta,16alpha, 17alpha)-6,9-difluoro-11-hydroxy-16-methyl-17-[(4-{[3-(methylthio)phenyl]thio}benzoyl)oxy]-3-oxoandrosta-1,4-diene-17-carboxylate] | 0.738 nM | 90.8 nM
12 | C[C@]12C=CC(=O)C=C1CC[C@H]1[C@@H]3CC[C@](OC(=O)c4ccc(Sc5ccc(O)c(Cl)c5)cc4)(C(=O)OCC#N)[C@@]3(C)C[C@H](O)[C@@]12F [Example 20, cyanomethyl (11beta,17alpha)-17-({4-[(3-chloro-4-hydroxyphenyl)thio]-benzoyl}oxy)-9-fluoro-11-hydroxy-3-oxoandrosta-1,4-diene-17-carboxylate] | 0.29 nM | 39.2 nM
13 | C[C@]12C=CC(=O)C=C1CC[C@H]1[C@@H]3CC[C@](OC(=O)c4ccc(-c5ccccc5)cc4)(C(=O)OCC#N)[C@@]3(C)C[C@H](O)[C@@]12F [Example 7, cyanomethyl (11beta,17alpha)-17-[(biphenyl-4-ylcarbonyl)oxy]-9-fluoro-11-hydroxy-3-oxoandrosta-1,4-diene-17-carboxylate] | 0.555 nM | 39.9 nM
14 | C[C@]12C=CC(=O)C=C1CC[C@H]1[C@@H]3CC[C@](OC(=O)c4ccc(Sc5ccccc5)c(O)c4)(C(=O)OCC#N)[C@@]3(C)C[C@H](O)[C@@]12F [Example 19, cyanomethyl (11beta,17alpha)-9-fluoro-11-hydroxy-17-{[3-hydroxy-4-(phenylthio)benzoyl]oxy}-3-oxoandrosta-1,4-diene-17-carboxylate] | 0.3 nM | 44.8 nM
15 | C[C@]12C=CC(=O)C=C1CC[C@H]1[C@@H]3CC[C@](OC(=O)c4ccc(Sc5ccc(Cl)c(O)c5)cc4)(C(=O)SCC#N)[C@@]3(C)C[C@H](O)[C@@]12F [Example 38, (11beta,17alpha)-17-{[(cyanomethyl)thio]carbonyl}-9-fluoro-11-hydroxy-3-oxoandrosta-1,4-dien-17-yl 4-[(4-chloro-3-hydroxyphenyl)thio]benzoate] | 0.755 nM | 54.7 nM

Reference: US20100303758A1, “Novel Glucocorticoid Receptor Agonists” (priority 2009, published 2010)
